Where “and” joins values, the source holds several entries; their conditions need not be identical. Identical values can stand only once. Like-named read-outs stand apart in the source and are kept apart here. Marks after values point to notes of the source that are not given here.
How the values were obtained:
P. acnes NCTC 737 = assay: Fixed ratio combination MIC/MBC assays; assay type: cell-based, Propionibacterium acnes
Description: (§1) (g) Fixed Ratio Combination MIC/MBC Assays
(§2) This method used a sterile 96-well microtitre plate, capable of holding about 200 μl of liquid per well. The wells contained liquid culture medium and ranges of decreasing concentrations of the relevant test compounds alone in doubling dilutions (eg 1000, 500, 250, 125 . . . μg/ml, etc. down to 0.49 μg/ml) or doubling dilutions of a combination of two compounds mixed initially at a fixed concentration ratio (based on molarity in this instance). The culture medium was as described above.
(§3) The wells were inoculated with a liquid suspension of freshly grown micro-organism and incubated under the conditions described above. After incubation, the microtitre plate was examined visually (with the aid of a light box) for cloudiness in each well, which would indicate microbial growth. The MIC value was recorded as the lowest concentration of test compounds alone or concentrations of the mixture of the two test compounds required to inhibit microbial growth, ie the liquid in the well remained clear.
(§4) The assays were conducted in triplicate and included both negative (culture medium with no micro-organisms) and positive (culture medium plus diluting solvent(s) plus micro-organism) controls.
(§5) These samples were then individually sub-cultured on antibiotic-free agar medium, under the incubation conditions described above. Following incubation they were examined visually for microbial growth.
(§6) Thus for each mixture tested, the FIC for compound A (FICA)=MIC for (A+B)/MIC for A alone. Similarly the FIC for compound B (FICB)=MIC for (A+B)/MIC for B alone. The overall FICI=FICA+FICB.
(§7) FBC & FBCI were calculated in the same manner using recorded MBC values.

C. striatum NCTC 764 = assay: Fixed ratio combination MIC/MBC assays; assay type: cell-based, Corynebacterium striatum
Description: The second test organism used was Corynebacterium striatum NCTC 764. This is a Gram-positive bacterium which is closely related to organisms (aerobic diphtheroids of the genus Corynebacterium) that cause body odour (Guillet et al, Eur J Dermatol, 2000 Jan-Feb, 10(1): 41-2). The C. striatum was cultured and maintained on Mueller-Hinton Medium (agar and broth) at pH 7.3 (±0.1); cultures were incubated aerobically at 37° C. for 18-24 hours.
as §1, §2, §3, §4, §5, §6, §7

[1] = tested on: Propionibacterium acnes NCTC 737; assay: Minimum biocidal concentration (MBC) assay; assay type: cell-based
Description: (§8) The first test organism used was Propionibacterium acnes NCTC 737. This is a propionibacterial strain and is the type strain of the genus; it is fully susceptible to antibiotics. The propionibacteria are clinically significant due to their involvement in acne. They are also opportunistic pathogens in compromised hosts. Activity observed against these micro-organisms is expected to be a good predictor of activity against acne.
(§9) The propionibacteria were cultured and maintained on Wilkins-Chalgren Anaerobe Medium (agar and broth) at pH 6.0; all cultures were incubated anaerobically at 37° C. for 72 hours.
(b) Minimum Biocidal Concentration (MBC) Assay
This assay, normally carried out after an MIC assay, determines the minimum concentration of a compound that is lethal to the micro-organism being tested.
as §5

[2] = tested on: Propionibacterium acnes NCTC 737; assay: Minimum inhibitory concentration (MIC) assay; assay type: cell-based
Description: as §8, §9
(a) Minimum Inhibitory Concentration (MIC) Assay
This is a standard international method for quantitatively assessing the antimicrobial activity of a compound in a liquid medium. The method used a sterile 96-well microtitre plate, capable of holding about 200 μl of liquid per well. The wells contained liquid culture medium and ranges of decreasing concentrations of the relevant test compound in doubling dilutions (eg 1000, 500, 250, 125 . . . μg/ml, etc, down to 0.49 μg/ml). The culture media were as described above.
as §3, with “of test compound required to” for “of test compounds alone or concentrations of the mixture of the two test compounds required to”, “ie the lowest concentration for which the liquid in” for “ie the liquid in”
The assays included both negative (culture medium with no micro-organisms) and positive (culture medium plus diluting solvent plus micro-organism) controls.

[3] = tested on: Propionibacterium acnes NCTC 737; assay: Disc diffusion assay (DDA) and synergy disc diffusion assay (SDDA); assay type: cell-based
Description: (c) Disc Diffusion Assay (DDA)
This is an internationally recognised standard method for qualitatively assessing the antimicrobial activity of a compound or combination of compounds.
A sterile paper disc was impregnated with a sample of the test compound(s) in a suitable solvent (or applied neat) and 30 minutes allowed for any of the solvents to evaporate (where possible). The disc was then placed on an agar plate onto which the test micro-organism had been inoculated. The plate was then incubated under the conditions described above, following which it was examined visually for signs of microbial growth. […] The diameter of this zone of “inhibition” was measured using a ProtoCOL™ automated zone sizer (Synbiosis, Cambridge, UK).
(d) Synergy Disc Diffusion Assay (SDDA)
This is a variation on the DDA method, in which two compounds are tested together for their combined antimicrobial activity.
Two test compounds A and B were placed on a single paper disc and the above described DDA procedure repeated.
The two compounds were then subjected in combination to the SDDA assay described above.
MIC/MBC experiments were performed in duplicate and (S)DDA experiments in triplicate.
The tropolone was dissolved in ethanol.

[4] = C. striatum NCTC 764, compound alone
[5] = P. acnes NCTC 737, compound alone
[6] = compound alone, 12.5 μg per disc (gluconate, picolinate 25 μg; silicate 12.4 μg; chlorophyllin 200 μg)
[7] = copper salt + tropolone versus the greater single zone
[8] = copper salt combined with tropolone on one disc, 12.5 μg each (exceptions b187)

| Compound | MBC (C. striatum NCTC 764; [4]) | MIC (C. striatum NCTC 764; [4]) | MBC [1, 5] [µg/mL] | MIC/MBC ratio [1, 5] | MIC [2, 5] [µg/mL] | DDA zone of inhibition diameter [3, 6] [mm] | SDDA area increase [3, 7] [%] | SDDA increase [3, 7] [mm] | (S)DDA with tropolone [3, 8] [mm] | also measured |
| --- | --- | --- | --- | --- | --- | --- | --- | --- | --- | --- |
| CC(=O)[O-].CC(=O)[O-].CC(=O)[O-].[Bi+3] [Bismuth (III) acetate] |  |  |  |  |  |  |  |  |  | MBC (P. acnes NCTC 737; compound alone): >46.4** μg/ml; MIC (P. acnes NCTC 737; compound alone): 11.6 µg/mL |
| [Cl][Bi]([Cl])[Cl] [Bismuth (III) chloride] |  |  |  |  |  |  |  |  |  | MBC (P. acnes NCTC 737; compound alone): 27 µg/mL and 40 µg/mL |
| O=C([O-])CC(O)(CC(=O)[O-])C(=O)[O-].[Bi+3] [Bismuth (III) citrate] |  |  |  |  |  |  |  |  |  | MBC (C. striatum NCTC 764): >67.9** μg/ml; MIC (C. striatum NCTC 764): >67.9** μg/ml; MBC (P. acnes NCTC 737; compound alone): 8.5 µg/mL; MIC (P. acnes NCTC 737; compound alone): 2.1 µg/mL |
| O=C(O)c1cc(O)c2c(c1)[O][Bi]([OH])[O]2 [Bismuth (III) subgallate] | >67.2** μg/ml | >67.2** μg/ml |  |  |  |  |  |  |  | MBC (P. acnes NCTC 737; compound alone): >67.2** μg/ml; MIC (P. acnes NCTC 737; compound alone): >67.2** μg/ml |
| [Cu+].[I-] [Copper (I) iodide] | >97.5** μg/ml | >97.5** μg/ml | 31.25 | 0.25 | 7.8 | 29.66 | 24.28 | 3.41 | 33.07 |  |
| O=C1CC[C@@H](C(=O)[O-])N1.O=C1CC[C@@H](C(=O)[O-])N1.[Cu+2] [Copper (II) PCA] | >81.9** μg/ml | >81.9** μg/ml | 62.5 | 0.25 | 15.6 | 23.36 | 55.70 | 5.79 | 29.15 |  |
| CSCC[C@H](NC(C)=O)C(=O)[O-].CSCC[C@H](NC(C)=O)C(=O)[O-].[Cu+2] [Copper (II) acetylmethionate] |  |  | 125 | 0.06 | 7.8 | 10.23 | 306.27 | 13.44 | 26.67 |  |
| [Cl][Cu][Cl] [Copper (II) chloride] | >34.4** μg/ml | >34.4** μg/ml | 31.25 | 0.06 | 1.95 | 32.14 | 1.94 | 0.31 | 32.45 |  |
| NCC(=O)[O-].NCC(=O)[O-].[Cu+2] [Copper (II) glycinate] |  |  |  |  |  |  |  |  |  | MBC (C. striatum NCTC 764): >54.2** μg/ml; MIC (C. striatum NCTC 764): >54.2** μg/ml |
| CC(=O)c1c([O-])c(C)c([O-])c2c1OC1=CC(=O)C(C(C)=O)C(=O)C12C.[Cu+2] (centres unmarked) [Copper (II) usnate] | 6 µg/mL | 3 µg/mL | 1.95 | 0.125 | 0.25 | 38.35 | 22.13 | 4.03 | 42.38 |  |
| O=C([O-])CN(CCN(CC(=O)[O-])CC(=O)[O-])CC(=O)[O-].[Cu+2].[Na+].[Na+] [EDTA copper (II) disodium salt] |  |  | >250 | <0.03 | 7.8 | 10.03 | 328.62 | 14.16 | 27.39 |  |
| CC(C)c1cccc(=O)c(O)c1 [Hinokitiol, 2-hydroxy-4-isopropyl-2,4,6-cycloheptatrien-1-one] |  |  |  |  |  |  |  |  |  | MBC (P. acnes NCTC 737; Cutibacterium acnes, NCTC737, compound alone, read-out: MBC): 62.5 µg/mL; MIC (P. acnes NCTC 737; Cutibacterium acnes, NCTC737, compound alone, read-out: MIC): 31.2 µg/mL |
| O.O=C(O)CC(O)(CC(=O)O)C(=O)O.[Ag].[Ag].[Ag] [Silver (I) citrate hydrate] | 11.3 µg/mL | 2.83 µg/mL |  |  |  |  |  |  |  |  |
| Bismuth (III) subnitrate | >249.4** μg/ml | >249.4** μg/ml |  |  |  |  |  |  |  | MBC (P. acnes NCTC 737; compound alone): 15.6 µg/mL; MIC (P. acnes NCTC 737; compound alone): 3.9 µg/mL |
| Copper (II) carbonate basic | >28.3** μg/ml | >28.3** μg/ml | 31.25 | 0.25 | 7.8 | 9.10 | 102.17 | 5.58 | 18.81 |  |
| Copper (II) citrate dihydrate |  |  |  |  |  |  |  |  |  | MBC (C. striatum NCTC 764): >45** μg/ml; MIC (C. striatum NCTC 764): >45** μg/ml; MBC [1]: 31.25 µg/mL; MIC/MBC ratio [1]: 0.06; MIC [2]: 1.95 µg/mL; (S)DDA with tropolone [3]: 32.45 mm; DDA zone of inhibition diameter [3]: 32.04 mm; SDDA area increase [3]: 2.60%; SDDA increase [3]: 0.41 mm |
| Copper (II) gluconate | >116** μg/ml | >116** μg/ml | 125 | 0.5 | 62.5 | 26.25 | 40.43 | 4.86 | 31.11 |  |
| Copper (II) picolinate | >78.8** μg/ml | >78.8** μg/ml | 62.5 | 1 | 62.5 | 35.25 | −14.13 | −2.58 | 32.66 |  |
| Copper (II) salicylate |  |  |  |  |  |  |  |  |  | MBC (C. striatum NCTC 764): >86** μg/ml; MIC (C. striatum NCTC 764): >86** μg/ml; MBC [1]: 31.25 µg/mL; MIC/MBC ratio [1]: 0.25; MIC [2]: 7.8 µg/mL; (S)DDA with tropolone [3]: 32.87 mm; DDA zone of inhibition diameter [3]: 28.32 mm; SDDA area increase [3]: 34.70%; SDDA increase [3]: 4.55 mm |
| Copper (II) silicate | >35.7** μg/ml | >35.7** μg/ml | 38.75 | 0.125 | 4.84 | 33.80 | 3.08 | 0.52 | 34.32 |  |
| Sodium copper (II) chlorophyllin | >185** μg/ml | 23.2 µg/mL | 31.25 | 0.5 | 15.6 | 0.00 | 220.07 | 10.44 | 23.67 |  |
